{"source": "patent US20030157640A1", "about": "“Aequorin as a growth marker in yeast” (priority 2001, published 2003)", "key": {"pheromone receptor Ste2 [1]": {"molecular_target": "T1, pheromone receptor Ste2 (Saccharomyces cerevisiae, UniProt D6VTK4)", "T1 construct": "As a yeast strain W303 MAT a, far::hisG, sst2::URA3^FOA, fus1::HIS3 was used; endogenous in cells; host or cells: yeast strain W303 MATa far::hisG sst2::URA3^FOA fus1::HIS3, transformed with reporter plasmid p78 4PRE-AEQ or p78 4PRE-LacZ", "T1 sequence (D6VTK4 1-431)": "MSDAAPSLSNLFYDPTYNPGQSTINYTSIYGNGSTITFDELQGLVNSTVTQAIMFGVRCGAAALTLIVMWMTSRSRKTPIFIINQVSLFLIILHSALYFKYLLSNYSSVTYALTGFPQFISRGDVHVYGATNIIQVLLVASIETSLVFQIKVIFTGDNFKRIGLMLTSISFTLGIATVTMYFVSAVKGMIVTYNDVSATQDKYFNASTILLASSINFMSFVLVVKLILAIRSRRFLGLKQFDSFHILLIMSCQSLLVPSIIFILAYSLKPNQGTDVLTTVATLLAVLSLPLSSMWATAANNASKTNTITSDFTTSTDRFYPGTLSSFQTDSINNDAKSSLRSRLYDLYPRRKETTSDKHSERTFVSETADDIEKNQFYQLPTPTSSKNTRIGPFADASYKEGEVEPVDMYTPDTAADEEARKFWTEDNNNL", "test": "Pheromone pathway activity reporter assay, 4PRE-Aequorin reporter in yeast", "format": "cell-based", "protocol": "(§1) As a yeast strain W303 MAT a, far::hisG, sst2::URA3^FOA, fus1::HIS3 was used.\nThe cells are distributed and/or grown in a white 96-well plate, in a volume of 100 μl.\n30 minutes before the measurement time point, 10 μl of a 5 μM coelenterazine (Molecular Probes) solution is distributed in each well (to obtain a 0.5 μM final concentration) to load the cells.\nThe plate is then incubated at 30° C. for the last 30 minutes.\nAequorin detection is made in a luminometer with injecting system (Luminoskan, Labsystems). For each well, immediately after injection of a 10 mM CaCl2 solution (1M CaCl2 diluted in lysis buffer Y-PER from Pierce), the luminescent signal is integrated for 15 seconds.\nTo avoid the intermediate step of loading, it is possible to introduce coelenterazine in the medium at the beginning of the assay: coelenterazine is added at a concentration of 0.5 μM.\n(§2) In this assay, the expression of the two reporter genes depends on the activity of the pheromone mating pathway (Leberer et al., 1997). The minimal promoter 4PRE amplified from the FUS1 promoter region (Hagen et al., 1991) is activated only in case of a mating signal. This signal is elicited by stimulation of the pheromone receptor Ste2 by its ligand α-factor.\n(§3) Three colonies of the yeast strain transformed with either p78 4PRE-AEQ or p78 4PRE-LacZ plasmids were grown in the appropiate medium (SC Glucose—Trp) to stationary phase and then diluted in the same medium (with 0.5 μM coelenterazin for the aequorin strain) containing 0; 10^−7; 10^−9; 10^−11M α-factor (Sigma). The plates were then shaken at 30° C., 700 r.p.m., for 3, 6 and 24 hours.\n(§4) To allow the comparison between the two reporters and the different stimulation times, the measured detection numbers of Aequorin (FIG. 5) and β-Galactosidase (FIG. 6) are expressed as a ratio: stimulated/non stimulated."}, "pheromone receptor Ste2 [2]": {"molecular_target": "T1, pheromone receptor Ste2", "test": "Pheromone pathway activity reporter assay, 4PRE-LacZ (β-Galactosidase) reporter in yeast", "format": "cell-based", "protocol": "as §1\nThe cells are distributed and/or grown in a white 96-well plate, in a volume of 100 μl. At the measurement time point, each well receives 100 μl of a β-Galactosidase detection mix (Gal-screen, Tropix).\nThe plate is incubated for one hour at 28° C.\nβ-Galactosidase signal is read in a luminometer; the luminescent signal is integrated for 0.5 seconds.\nas §2, §3, §4"}, "GPCR Ste2": {"molecular_target": "T2, GPCR Ste2 (Saccharomyces cerevisiae, UniProt D6VTK4)", "T2 construct": "The addition of α-factor to a yeast cell (i.e. stimulation of the GPCR Ste2) raises [Ca^2+]i", "T2 sequence (D6VTK4 1-431)": "T1 sequence (D6VTK4 1-431)", "settings": "yeast cell, basal level approximately 100 nM; Iida et al., 1990; cited from earlier work"}, "[3]": {"settings": "1 nM α-factor, 3 hours of stimulation"}, "[4]": {"settings": "1 nM α-factor, 6 hours of stimulation"}, "[5]": {"settings": "100 nM α-factor, 3 hours of stimulation"}, "[6]": {"settings": "100 nM α-factor, 6 hours of stimulation"}}, "data": [{"substance": "α-factor", "values": [{"measurement": "Aequorin detection ratio stimulated/non stimulated", "setting": "pheromone receptor Ste2 [1]; [3]", "result": 8}, {"measurement": "Aequorin detection ratio stimulated/non stimulated", "setting": "pheromone receptor Ste2 [1]; [4]", "result": 11}, {"measurement": "Aequorin detection ratio stimulated/non stimulated", "setting": "pheromone receptor Ste2 [1]; [5]", "result": 24}, {"measurement": "Aequorin detection ratio stimulated/non stimulated", "setting": "pheromone receptor Ste2 [1]; [6]", "result": 36}, {"measurement": "β-Galactosidase detection ratio stimulated/non stimulated", "setting": "pheromone receptor Ste2 [2]; [3]", "result": 4}, {"measurement": "β-Galactosidase detection ratio stimulated/non stimulated", "setting": "pheromone receptor Ste2 [2]; [4]", "result": 7}, {"measurement": "β-Galactosidase detection ratio stimulated/non stimulated", "setting": "pheromone receptor Ste2 [2]; [5]", "result": 7}, {"measurement": "β-Galactosidase detection ratio stimulated/non stimulated", "setting": "pheromone receptor Ste2 [2]; [6]", "result": 7}, {"measurement": "[Ca2+]i after addition of α-factor", "setting": "GPCR Ste2", "result": "a few hundred"}]}]}
